Our source for the Kb and IC50 values is US5693640A, “Pyridazino-indole derivatives” (Merck, Sharp & Dohme, Ltd., priority 1994, dated 1997).

In test [1] the test system is NMDA. The test can be described thus: Cortical slice studies: responses to NMDA in rat cortical slice. Particulars: calculated from righthand shift in the NMDA concentration-response curve, read-out: apparent equilibrium constant (Kb) in response to NMDA. The source says:
(§1) The compounds useful in this invention potently and selectively block responses to NMDA and/or AMPA in a brain slice from rat cortex, and inhibit the binding of agonists and antagonists to the strychnine-insensitive site present on the NMDA receptor and/or AMPA binding to rat forebrain membranes.
The effects of compounds of use in the invention on responses to NMDA and AMPA can be assessed using the rat cortical slice as described by Wong et al., Proc. Natl. Acad. Sci. USA, 1986, 83, 7104. The apparent equilibrium constant (Kb) is calculated from the righthand shift in the NMDA or AMPA concentration-response curves produced by the compound under test.

Test [2] has as its target T1, strychnine-insensitive site present on the NMDA receptor (Rattus norvegicus, UniProt P35439).
T1 construct: strychnine-insensitive site present on the NMDA receptor of rat forebrain membranes; from tissue; host or cells: rat forebrain membranes
The test can be described thus: Displacement of 3H-L-689,560 binding, rat forebrain membranes. Particulars: read-out: concentration required to displace 50% of the specific binding (IC50).
From the text: as §1
The ability of test compounds to displace ^3 H-L-689,560 (trans-2-carboxy-5,7-dichloro-4-phenylaminocarbonylamino-1,2,3,4-tetrahydroquinoline) binding to the strychnine-insensitive site present on the NMDA receptor of rat forebrain membranes can be determined by the method of Grimwood et al., Proceedings of the British Pharmacological Society, July 1991, Abstract C78.
(In a radioligand displacement assay an active substance lowers the binding of a labelled ligand.)

With `O=c1[nH]n(-c2ccccc2)c(=O)c2c1[nH]c1ccccc12` [Example 1, 2-Phenylpyridazino[4,5-b]indole-1,4-dione], the Kb in test [1] was under 150 µM. The IC50 in test [2] was under 50 µM.
